Assay results from patent US20260240841A1, “COMBINATION OF HPK1 INHIBITOR AND AXL INHIBITOR IN CANCER THERAPY” (BOARD OF REGENTS, THE UNIVERSITY OF TEXAS SYSTEM, priority 2023, published 2026).

Experiments:
B16F10 melanoma cells = experiment: Subcutaneous B16F10 melanoma xenograft model; type: in vivo, mouse; conditions: for tumor weight: FIG. 12B
Description: (§1) For sub-cutaneous xenograft studies, the C57BL/6 female or male mice aged 5-7 weeks (Jackson Labs) were used. 1×10^6 KPC-Luc cells or 2×10^5 B16F10 melanoma cells were injected into the dorsal region of the wild type (WT) or HPK1-mice. Animals were imaged using the IVIS Spectrum, PerkinElmer and Bruker ICON MRI at 3 and 10 days after successful implantation of KPC-Luc cells. Only mice with similar tumor volume (~150 mm^3) were used for treatment studies. These experiments were randomized. […] Mice were euthanized for tumor collection once tumor volume was approximately ~1000 mm^3. For orthotopic studies, 0.5×10^6 KPC-Luc cells were implanted orthotopically into WT C57BL/6 mice and/or HPK1^−/− mice pancreas. Bioluminescence imaging with the IVIS Spectrum (Perkin Elmer) was performed after intraperitoneal injection of 1.5 mg of D-luciferin (PerkinElmer). After image acquisition, the Living Image 4.7 software (PerkinElmer) was used for analysis of images. Therapy was initiated at day 10 post tumor cell injection. All mice were sacrificed on Day 35 for survival study or otherwise labeled in the Figures.
(§2) To examine the effects of pharmacological inhibition of Axl, Kras, and HPK1 with or without Anti-41BB/CD137 on tumor growth, Axl inhibitor (Bemcentinib MedChem Express) was dosed at 10 mg/kg/day for intraperitoneal injection (IP). HPK1-IN-7 (HPK1 inhibitor #1 MedChem Express) was dosed at 20 mg/kg/day orally, GNE1858 (HPK1 inhibitor #2 MedChem Express) was dosed at 10 mg/kg/day orally. KRAS^G12D inhibitor (MRTX1133, MedChem Express) was dosed at 25 mg/Kg twice daily for intraperitoneal injection. Anti-41BB (clone LOB12.3, BioXCell, BE0169) antibody and its corresponding isotype IgG controls were intraperitoneally administered at 200 μg per injection for three times per week. The duration of treatment was 10 days. Tumor size was measured every other day using the methods as previously described.
To evaluate the therapeutic effect of an Axl inhibitor, bemcentinib, on melanoma, subcutaneous tumors of subcutaneous melanoma xenograft model of B16F10 cells in HPK1 knockout mice and wild type mice were treated with 10 mg/kg/day bemcentinib by intraperitoneal injection (IP) twice daily for 10 days. The tumor volumes (FIG. 12A) and tumor weight (FIG. 12B) were measured at 12 days after the completion of treatment.
Subcutaneous melanoma xenograft tumors of B16F10 cells were grown in wild-type mice, and treatment was performed as described above. Following treatment, tumors were excised from the mice at day 12 after completion of therapy and both tumor volume and tumor weight were measured.

KPC-Luc cells = experiment: KPC-Luc tumor growth in WT C57BL/6 mice under Axl inhibitor, HPK1 inhibitor, CD137 antibody and combinations; type: in vivo, mouse; conditions: treated 10 days
Description: as §1
To examine the effects of pharmacological inhibition of Axl, Kras, and HPK1 with or without Anti-41BB/CD137 on tumor growth, Axl inhibitor (Bemcentinib MedChem Express) was dosed at 10 mg/kg/day for intraperitoneal injection (IP). HPK1-IN-7 (HPK1 inhibitor #1 MedChem Express) was dosed at 20 mg/kg/day orally, GNE1858 (HPK1 inhibitor #2 MedChem Express) was dosed at 10 mg/kg/day orally. […] Tumor size was measured every other day using the methods as previously described.
Tumors were grown in wild-type mice, and treatment was performed as described above. Following treatment, tumors were excised from the mice and both tumor volume and tumor weight were measured.
To further study the synergistic effects of the combination therapy, tumors were grown in wild-type mice and treatment was performed as described above. Following treatment, tumors were excised from the mice and tumor weight was evaluated. […]

[1] = system: orthotopic xenograft tumors of KPC-Luc cells; experiment: IVIS bioluminescence imaging of orthotopic KPC-Luc xenograft tumors treated with Axl inhibitor; type: in vivo, mouse; conditions: imaged 17 days post implantation with KPC-Luc cells
Description: as §1, with “All mice were sacrificed on Day 35 for survival study or otherwise labeled in the Figures.” left out
To examine the effects of pharmacological inhibition of Axl, Kras, and HPK1 with or without Anti-41BB/CD137 on tumor growth, Axl inhibitor (Bemcentinib MedChem Express) was dosed at 10 mg/kg/day for intraperitoneal injection (IP). […] Tumor size was measured every other day using the methods as previously described. […]

[2] = system: orthotopic xenograft tumors of KPC-Luc cells; experiment: Multicolor flow cytometry of intra-tumoral hematopoietic cells from KPC-Luc xenograft tumors; type: in vivo, mouse
Description: For flow cytometry studies, orthotopic xenograft tumors of KPC-Luc cells from the HPK1−/− or wild type control were digested in digestion buffer (1 mg/mL collagenase IV and 10 U/mL DNase I in Dulbecco's Modified Eagle Medium (DMEM)) at 37° C. for 30 minutes. After thorough mixing, the samples were pushed through a 70-μm cell strainer and washed with 40 ml DMEM without fetal bovine serum (FBS), The digested cells were re-suspended in 37 % Percoll and overlaid on top of the same volume of 70% Percoll. After centrifugation at 800 g for 20 minutes with break off, the lymphocytes were isolated from the interface and rinsed with PBS. The cells were first stained by Zombie UV, followed by incubation in a cocktail comprising the following antibodies in cell staining buffer: anti-CD45, anti-CD38, anti-B220, anti-CD11b, anti-F4/80, anti-Ly6C, anti-Ly6G, anti-CD4, anti-IA/IE, and anti-CD8g. After washing, the stained cells were submitted for multiple-color flow cytometry. The results were processed using FlowJo software.
Following tumor xenograft imaging, the tumors were excised from the mice and subsequently prepared for flow cytometry as described above.

mouse PDAC models = conditions: cited from earlier work
[3] = system: orthotopic KPC-Luc pancreatic tumors; experiment: Orthotopic KPC-Luc pancreatic cancer model treated with MRTX1133; type: in vivo, mouse; conditions: for tumor weight: 25 mg/kg twice daily for ten days, weighed seven days after completion, FIG. 10
Description: as §1, §2
To further evaluate the association, tumor size was determined in mice treated with MRTX1133. […]

pancreatic cancer = conditions: Ludwig et al.; cited from earlier work

SMILES: Nc1nc(Nc2ccc3c(c2)CC[C@@H](N2CCCC2)CC3)nn1-c1cc2c(nn1)-c1ccccc1CCC2 [bemcentinib]
- tumor volume (B16F10 melanoma cells; HPK1 knockout mice, 10 mg/kg/day IP for 10 days, 12 days after completion, FIG. 12A): significant decrease
- tumor weight (B16F10 melanoma cells; HPK1 knockout mice, 10 mg/kg/day IP for 10 days, 12 days after completion): significant decrease
- tumor volume (B16F10 melanoma cells; wild type mice, 10 mg/kg/day IP for 10 days, 12 days after completion, FIG. 12A): slight decrease
- tumor weight (B16F10 melanoma cells; wild type mice, 10 mg/kg/day IP for 10 days, 12 days after completion): slight decrease
- tumor volume (B16F10 melanoma cells; wild-type mice, inhibitor comparison, treated 10 days, day 12 after completion, FIG. 13A): did not significantly decrease
- tumor weight compared to control (B16F10 melanoma cells; wild-type mice, inhibitor comparison, treated 10 days, day 12 after completion, FIG. 13B): reduced the tumor weight to a small degree
- tumor volume (KPC-Luc cells; measured 15 days after completion of treatment, FIG. 6A): did not significantly decrease
- tumor weight compared to control (in words) (KPC-Luc cells; weighed 12 days after completion, control about 0.6 grams, FIG. 7): only minimally reduced
- tumor weight compared to control (KPC-Luc cells; weighed 15 days after completion of treatment, FIG. 6B): reduced the tumor weight to a small degree
- tumor growth (luminescence) ([1]; HPK1 knockout mice, FIG. 3B): inhibited the growth of the tumor
- tumor volume (luminescence) ([1]; wild type mice, FIG. 3A): little to no decrease in the tumor volume
- CD3+ T cells and CD8+ T cells in the tumor microenvironment ([2]; HPK1 knockout mice, FIG. 4B): increased
- infiltration of macrophages and myeloid suppressor cells ([2]; HPK1 knockout mice, tumor microenvironment, FIG. 4B): decreased the infiltration
- number or function of B cells, CD3+ cells, CD4+ T cells, CD8+ T cells, CD11b+ cells, M-MDSC's, PMN-MDSC's, macrophages, neutrophils ([2]; wild-type mice, intra-tumoral, FIG. 4A): did not increase or decrease

SMILES: C#Cc1c(F)ccc2cc(O)cc(-c3ncc4c(N5CC6CCC(C5)N6)nc(OC[C@@]56CCCN5C[C@H](F)C6)nc4c3F)c12 [MRTX1133]
- tumor growth (mouse PDAC models): shrink tumors or halt the growth
- tumor weight ([3]; HPK1 knockout mice): significant decrease in tumor weight
- tumor weight ([3]; wild type mice): slight decrease in tumor weight
- response of tumor size shown by luminescence ([3]; wild-type mice versus HPK1 knockout mice, 25 mg/kg IP twice daily, imaged 7 days after treatment, FIG. 9): less responsive than the HPK1 knockout mice

SMILES: Nc1nc(Nc2ccc3c(c2)CC[C@@H](N2CCCC2)CC3)nn1-c1cc2c(nn1)-c1ccccc1CCC2 [BGB324]
- aggressiveness of pancreatic cancer (pancreatic cancer): inhibits the aggressiveness of pancreatic cancer
- sensitivity of pancreatic cancer cells to gemcitabine (pancreatic cancer): sensitizes pancreatic cancer cells to gemcitabine
- tumor immune microenvironment (pancreatic cancer): induces an immune stimulatory microenvironment
